The values that follow are results of earlier work, collected in patent publication US20250205268A1, “TREATMENT OF VIRUSES WITH ANTIVIRAL NUCLEOSIDES” (priority 2021, published 2025).

For the data set, the system named is pestivirus and hepacivirus. The settings on record: […] CHEMOTHER, 2003, 47 (1): 244-54; cited from earlier work.

For `O=c1nc(NO)ccn1[C@@H]1O[C@H](CO)[C@@H](O)[C@H]1O` [β-D-N(4)-hydroxycytidine, 1-((2R,3R,4S,5R)-3,4-dihydroxy-5-(hydroxymethyl)tetrahydrofuran-2-yl)-4-(hydroxyamino)pyrimidin-2 (1H)-one], the antiviral activities result is “antipestivirus and antihepacivirus activities”.
